Test results published in paper PMC13310753, “Discovery of actinomycin derivatives with improved selectivity against malaria parasites from a Streptomyces culture library” (The Journal of Antibiotics, 2026).
Like-named read-outs stand apart in the source and are kept apart here. Numbered stars: 1 amine (or outer) side, 2 acyl side, 3 side chain; on linkers, the order of the positions; unused ones are H or OH. Bridge positions count the residues as written; N and C are the ends. Square brackets hold non-standard residues; d marks the D form. Peptide text beside a SMILES is read from it. I, II: the chains in the order shown. Actinocin(1to9) = Cc1c2oc3c(C)ccc(C(=O)[*:2])c3nc-2c(C(=O)[*:1])c(N)c1=O; Actinocin(9to1) = Cc1c2oc3c(C)ccc(C(=O)[*:1])c3nc-2c(C(=O)[*:2])c(N)c1=O; Pro(4-oxo) = O=C1CN[C@H](C(=O)O)C1; Hyp = O=C(O)[CH]1C[CH](O)CN1; NMeV = CN[CH](C(=O)O)C(C)C; Sar = CNCC(=O)O

Tests used:
[1] = Cytotoxicity assay (Alamar Blue), primary adult mouse brain cells; type: cell-based; settings: AMB cells, two independent experiments in duplicate wells, read-out: CC50 (50% cytotoxic concentration)
Experimental: (§1) Malarial parasite cultures and AMB cells were previously described. The detailed experimental procedure is described in the Supplementary data. Antimalarial activity and cytotoxicity were evaluated at 50% inhibitory concentration (IC50) and 50% cytotoxic concentration (CC50), respectively. We here analyzed these activities on purified actinomycin X2 (1), actinomycin X0ß (2), and commercially available actinomycin D (3). The SI is calculated as CC50/IC50.
(§2) Blood stages of P. falciparum 3D7 cell lines were provided by Nagasaki University with support in part by NEKKEN Bio-Resource Center (NEKKEN BRC), Institute of Tropical Medicine, Nagasaki University as a part of National BioResource Project (NBRP), MEXT, Japan. Human erythrocytes used for parasite culture were obtained from the Japan Red Cross Society (Registration No. 28J0060). The 3D7 parasites were cultivated in O+ erythrocytes in 2% hematocrit in Roswell Park Memorial Institute (RPMI) 1640-based complete medium (CM) supplemented with 5% AB+ human serum (prepared from plasma), 0.25% AlbuMax I (Gibco, Waltham, MA), 12.5 µg/mL gentamycin, and […] hypoxanthine […]
Primary adult mouse brain (AMB) cells were isolated and established at the NEKKEN Bio-Resource Center, according to previously established methods (Ref. 2). Briefly, the primary cells, which were passaged several times to be adapted to in vitro conditions, were maintained in Minimum Essential Medium (MEM) (Wako Pure Chemicals Industrial Ltd, Osaka, Japan) supplemented with 10% fetal bovine serum (FBS), penicillin/streptomycin solution (100 units/mL penicillin G and […] streptomycin sulfate) (Wako Pure Chemicals Industrial Ltd) and incubated at 37°C and 5% CO2. For the cytotoxicity assay, primary cells that had completed three passages were used. […]
SYBR Green – I (Lonza, Rockland, ME) assay technique was used to detect the parasite DNA. […] The relative fluorescence units (RFU) per well were then determined at 485–515 nm (filter) for 0.1 sec per exposure using a multilabel plate reader (ARVO 1430; Perkin Elmer, Waltham, MA, USA). […]

P. falciparum strain 3D7 = assay: microbe, parasite or virus in culture; type: cell-based, Plasmodium falciparum; settings: for SI, selectivity index (CC50/IC50): CC50 in AMB cells / IC50 against 3D7; for IC50: Plasmodium falciparum, 3D7, 48 h, read-out: IC50 (50% inhibitory concentration), in vitro antimalarial activity; for antimalarial activity of purified components (in words): bioassay during purification using P. falciparum strains 3D7 and Dd2
Experimental: as §1, §2
Primary adult mouse brain (AMB) cells were isolated and established at the NEKKEN Bio-Resource Center, according to previously established methods (Ref. 2). Briefly, the primary cells, which were passaged several times to be adapted to in vitro conditions, were maintained in Minimum Essential Medium (MEM) (Wako Pure Chemicals Industrial Ltd, Osaka, Japan) supplemented with 10% fetal bovine serum (FBS), penicillin/streptomycin solution (100 units/mL penicillin G and […] streptomycin sulfate) (Wako Pure Chemicals Industrial Ltd) and incubated at 37°C and 5% CO2. For the cytotoxicity assay, primary cells that had completed three passages were used.
Antimalarial growth inhibition assays
The antimalarial growth inhibition assay to determine 50% inhibition concentration (IC50) of compounds was performed as described before, with a minor modification (Ref. 3).
Briefly, The P. falciparum cultures (0.75% parasitemia and 2% hematocrit) were seeded on a 96-well black plate with the clear bottom (Thermo Fisher Scientific, Rochester, NY) and […]
exposed to compounds serially diluted threefold over a concentration range of 2.5 µg/mL to 0.13 ng/mL at the final concentration. As a result of the dose-response assay, IC50 value, the concentration of drug required to reduce parasites by 50% (10(log(A/B) × (50 ‒ C)/(D ‒ C) + log(B)) was obtained, where A represents the lowest concentration at which the percentage inhibition was greater than 50%, B is the highest concentration value at which the percentage inhibition was less than 50%, C is the percentage inhibition value of the sample at concentration B, and D is the percentage inhibition value of the sample at concentration A.
The culture plates were kept at 37°C under mixed gas (5% O2, 5% CO2, and 90% N2) for 48 hrs. Each in vitro experiment was performed in duplicate wells and repeated twice. The parasite growth inhibition was obtained by dividing the test samples' parasitemia by the negative controls' average.
SYBR Green – I (Lonza, Rockland, ME) assay technique was used to detect the parasite DNA. The RBCs were lysed after 48 hrs of incubation by adding 100 µL of lysis buffer (20 mM Tris, 10 mM EDTA, 0.01% saponin (wt/vol), and 0.1% Triton X-100 (vol/vol), pH 7.5) and 1× final concentration of SYBR Green - I into each well. The plates were incubated at room temperature for 1 hr with gentle agitation. The relative fluorescence units (RFU) per well were then determined at 485–515 nm (filter) for 0.1 sec per exposure using a multilabel plate reader (ARVO 1430; Perkin Elmer, Waltham, MA, USA).
Cytotoxicity assay was performed to determine 50% cytotoxic concentration (CC50) as previously described with minor modification (Ref. 4). Briefly, AMB cells (1×10^4 cells) were seeded in a 96-well plate (black plate with a clear bottom) and incubated at 37°C in a CO2

Compound | CC50 at 48 h [1] | SI, selectivity index (CC50/IC50) (P. falciparum strain 3D7) | IC50 (P. falciparum strain 3D7) | CC50 ([1]; 48 hrs) | SI value relative to that of actinomycin D (P. falciparum strain 3D7) | IC50 (P. falciparum strain 3D7; P. falciparum 3D7, 48 hrs, two independent experiments in duplicate wells) | antimalarial activity of purified components (in words) (P. falciparum strain 3D7) | SI value relative to that of actinomycin D (P. falciparum strain 3D7; listed as 2) | SI value relative to that of actinomycin D (P. falciparum strain 3D7; listed as 1)
Cc1c2oc3c(C)ccc(C(=O)N[C@@H]4C(=O)N[C@H](C(C)C)C(=O)N5CCC[C@H]5C(=O)N(C)CC(=O)N(C)[C@@H](C(C)C)C(=O)O[C@@H]4C)c3nc-2c(C(=O)N[C@@H]2C(=O)N[C@H](C(C)C)C(=O)N3CCC[C@H]3C(=O)N(C)CC(=O)N(C)[C@@H](C(C)C)C(=O)O[C@@H]2C)c(N)c1=O [actinomycin D] (I: T[dV]P[Sar][NMeV] / II: T[dV]P[Sar][NMeV]; ester I:1-I:C, II:1-II:C; linker I:N-II:N via Actinocin(9to1)) | 6.71 nM | 14.3 | 0.469 nM | – | – | – | – | – | –
Cc1c2oc3c(C)ccc(C(=O)NC4C(=O)NC(C(C)C)C(=O)N5CCCC5C(=O)N(C)CC(=O)N(C)C(C(C)C)C(=O)OC4C)c3nc-2c(C(=O)NC2C(=O)NC(C(C)C)C(=O)N3CC(O)CC3C(=O)N(C)CC(=O)N(C)C(C(C)C)C(=O)OC2C)c(N)c1=O (centres unmarked) [actinomycin X0ß] (I: TV[Hyp][Sar][NMeV] / II: TVP[Sar][NMeV]; ester I:1-I:C, II:1-II:C; linker I:N-II:N via Actinocin(1to9); configuration not given here) | – | 106 | – | 818 nM | seven | 7.69 nM | significant antimalarial activity | 7 fold | –
Cc1c2oc3c(C)ccc(C(=O)N[C@@H]4C(=O)N[C@H](C(C)C)C(=O)N5CCC[C@H]5C(=O)N(C)CC(=O)N(C)[C@@H](C(C)C)C(=O)O[C@@H]4C)c3nc-2c(C(=O)N[C@@H]2C(=O)N[C@H](C(C)C)C(=O)N3CC(=O)C[C@H]3C(=O)N(C)CC(=O)N(C)[C@@H](C(C)C)C(=O)O[C@@H]2C)c(N)c1=O [actinomycin X2] (I: T[dV][Pro(4-oxo)][Sar][NMeV] / II: T[dV]P[Sar][NMeV]; ester I:1-I:C, II:1-II:C; linker I:N-II:N via Actinocin(1to9)) | 6.71 nM | 27.9 | 0.241 nM | – | – | – | significant antimalarial activity | – | 2 fold
